{"source": "patent US7589185B2", "about": "“Nucleotide sequences and protein(s) encoded by such nucleotides for modulation of apoptosis” (Universita' degli Studi di Catanzaro “Magna Graecia”, priority 2001, dated 2009)", "key": {"[1]": {"tested_on": "Air protein", "assay": "Intracellular expression of Air protein in primary B-CLL cells, immunofluorescence flow cytometry", "type": "cell-based, human", "text": "Presence of the Protein in primary ex vivo cells—We investigated whether our protein was present in primary ex vivo cells. (Procedures and conditions for isolation and culturing of primary cells are described in ref. 8-10). To this purpose, we first analysed three samples of B chronic lymphocytic leukemia (B-CLL) cells, since these cells can be considered a primary counterpart of the cell line that we initially studied. To detect the protein, we perform intracellular immuno-fluorescence experiments. 1−2×10^6 cells were fixed and permeabilised with 250 microl of Cytofix/Cytoperm (Pharmingen) solution, then incubated with the specific anti-Air rabbit polyclonal or a control rabbit antibody, followed by washing with Perm/Wash (Pharmingen) and a second incubation with fluorescein isothiocyanate (FITC)-conjugated goat anti-rabbit antibody. Then the cells were analysed with a FACScan (Becton Dickinson) flow cytometer. These experiments allowed to detect the presence of the protein in the three analysed B-CLL samples (FIGS. 7, 8 and 9).\nFIG. 7—Intracellular expression of Air protein in cells from a patient affected by B-CLL. 2×10^6/ml cells obtained from patient's peripheral blood by centrifugation through Ficoll-Hypaque were incubated 24 h at 37° C. in a 5% CO2 atmosphere in the absence or presence of 2 mM DEM, fixed and permeabilised with 250 microl of Cytofix/Cytoperm (Pharmingen) solution. The cells were then incubated with the specific anti-Air rabbit polyclonal or a control rabbit antibody, followed by washing with Perm/Wash (Pharmingen) and a second incubation with fluorescein isothiocyanate (FITC)-conjugated goat anti-rabbit antibody. Then the cells were analysed with a FACScan (Becton Dickinson) flow cytometer. A panel: unstimulated cells. B panel: DEM-stimulated cells. Protein expression is detected in the 33.8% of the cells in basal conditions and in the 47.6% of the cells incubated with DEM.\nFIG. 8—Intracellular expression of Air protein in cells from a patient affected by B-CLL. 2×10^6/ml cells obtained from patient's peripheral blood by centrifugation through Ficoll-Hypaque were incubated 24 h at 37° C. in a 5% CO2 atmosphere in the absence or presence of 2 mM DEM or 20 microM 2-Methoxymethylestradiol (2-ME), fixed and permeabilised with 250 microl of Cytofix/Cytoperm (Pharmingen) solution. The cells were then incubated with the specific anti-Air rabbit polyclonal or a control rabbit antibody, followed by washing with Perm/Wash (Pharmingen) and a second incubation with fluoresceinisothiocyanate (FITC)-conjugated goat anti-rabbit antibody. Then the cells were analysed with a FACScan (Becton Dickinson) flow cytometer. A panel: unstimulated cells. B panel: DEM-stimulated cells. C panel: cells stimulated with the drug 2-Methoxymethylestradiol (2-ME). Protein expression is detected in the 17.3% of the cells in basal conditions, in the 55.5% of DEM-stimulated cells and in the 53.1% of 2-ME-stimulated cells.\nFIG. 9—Intracellular expression of Air protein in a patient affected by B-CLL. […] Then the cells were analysed with a FACScan (Becton Dickinson) flow cytometer. […] Protein expression is detected in the 27.2% of the cells in basal conditions, in the 28.3% of DEM-stimulated cells and in the 23.1% of 2-ME-stimulated cells."}, "[2]": {"tested_on": "SH-SY5Y neuroblastoma cells", "assay": "Apoptosis of SH-SY5Y neuroblastoma cells induced by DEM, propidium iodide flow cytometry", "type": "cell-based, human", "settings": "2 or 6 mM DEM, oligonucleotides 7 microM, 12 or 16 h (FIGS. 3-6)"}}, "data": [{"molecule": "COCc1cc2c(cc1O)CC[C@@H]1[C@@H]2CC[C@]2(C)[C@@H](O)CC[C@@H]12", "note": "[2-ME, 2-Methoxymethylestradiol]", "values": [{"measurement": "cells in which Air protein expression is detected", "setting": "[1]; B-CLL patient of FIG. 8, 20 microM 2-ME, 24 h (basal 17.3%)", "result": 53.1, "unit": "%"}, {"measurement": "cells in which Air protein expression is detected", "setting": "[1]; B-CLL patient of FIG. 9, 20 microM 2-ME, 24 h (basal 27.2%)", "result": 23.1, "unit": "%"}]}, {"molecule": "CCOC(=O)/C=C\\C(=O)OCC", "note": "[DEM, diethylmaleate]", "values": [{"measurement": "cells in which Air protein expression is detected", "setting": "[1]; B-CLL patient of FIG. 7, 2 mM DEM, 24 h (basal 33.8%)", "result": 47.6, "unit": "%"}, {"measurement": "cells in which Air protein expression is detected", "setting": "[1]; B-CLL patient of FIG. 8, 2 mM DEM, 24 h (basal 17.3%)", "result": 55.5, "unit": "%"}, {"measurement": "cells in which Air protein expression is detected", "setting": "[1]; B-CLL patient of FIG. 9, 2 mM DEM, 24 h (basal 27.2%)", "result": 28.3, "unit": "%"}]}, {"molecule": "SEQ ID NO 6: antisense phosphorothioate oligonucleotide directed at blocking Air synthesis (CTTAGTCTTATACATTTTTTTAAAATC; all phosphorothioate, sugars by position and methylation of C not given here)", "values": [{"measurement": "modulation of apoptosis", "setting": "[2]", "result": "blocking it"}]}, {"molecule": "SEQ ID NO 7: antisense phosphorothioate oligonucleotide directed at blocking Air synthesis (ATCTTAGTCTTATACATTTTTTTAAA; all phosphorothioate, sugars by position and methylation of C not given here)", "values": [{"measurement": "modulation of apoptosis", "setting": "[2]", "result": "blocking it"}]}, {"molecule": "SEQ ID NO 8: antisense phosphorothioate oligonucleotide directed at blocking Air synthesis (CTTTCTATCTTCATTTTATTTTTCC; all phosphorothioate, sugars by position and methylation of C not given here)", "values": [{"measurement": "modulation of apoptosis", "setting": "[2]", "result": "blocking it"}]}]}
